Several values for one entry are separate records, joined by “and”; a condition that tells them apart may be missing. Equal values may be shown once. Read-outs that look alike come from different tables or passages of the source.
Key:
Type in all cases: cell-based
[1] = molecular target: T1, human α1β2γ2 GABAΑ receptor (Homo sapiens, UniProt P14867+P47870); assay: FMP assay at α1β2γ2 GABAA receptors in HEK cells
T1 construct: expressed in transfected cells; host or cells: HEK293 line stably expressing α1β2γ2 (gift from Marianne L. Jensen, Neurosearch)
Protocol: (§1) HEK293 cells were maintained in DMEM containing GlutaMAX-I, supplemented with 10% FBS and 1% penicillin-streptomycin and incubated at 37 °C and a humidity of 5% CO2. For expression of δ-containing GABAΑ receptors, a HEK293 Flp-In^ΤΜ cell line stably expressing the human GABAΑ δ-subunits (referred to as δ-HEK) was used and the γ-containing subtypes was expressed in a background HEK293 Flp-In^ΤΜ cell line stably expressing the G-protein coupled peptide receptor NPBWR2 (referred to as HEK background)[26], both positively selected for using 200 μg/mL hygromycin B. α1β2γ2 receptors were stably expressed in a HEK293 cell line maintained as above but with no selection (gift from Marianne L. Jensen, Neurosearch).
(§2) To express recombinant GABAΑ receptors human α1, α2, α3, α5, α6, β2, γ2 (pcDNA3.1/Zeo) and α4, β1 (pUNIV)[26] subunit cDNA were transiently transfected into either δ-HEK or HEK background cells. δ-HEK cells were transfected with α- and β-subunits in a 1:1 ration whereas HEK background cells were transfected with α-, β- and γ-subunits in a 1:1:2 ratio. Human BGT1 (pcDNA5/FRT)[43] was transiently transfected into the δ-HEK cell line. δ-HEK cells transfected for whole-cell patch-clamp recordings were co-transfected with green fluorescent protein (GFP) as well as α- and β-subunits in a 0.5:1:1 ratio (0.8 μg + 1.6 μg + 1.6 μg in a 6 cm dish) in order to identify transfected cells. The transfection was carried out using Polyfect as transfection reagent according to the manufactures protocol expect for using half the recommended volume of Polyfect.
(§3) The FMP assay was performed as previously described with a few modifications. […] Data was obtained as changes in fluorescence units (∆RFU) by measuring emission at 560 nm caused by excitation at 530 nm. […]
(§4) Data obtained in the FMP assay are given as relative changes in fluorescence units (ΔRFU) by subtracting the average of the baseline fluorescence signal from the peak fluorescence signal after compound addition. […]

[2] = molecular target: T2, human α4β2δ GABAΑ receptor (Homo sapiens, UniProt P47870+P48169); assay: FMP assay at α4β2δ GABAA receptors in HEK cells
T2 construct: expressed in transfected cells; host or cells: δ-HEK (HEK293 Flp-In stably expressing human δ), transiently transfected with α and β 1:1
Protocol: as §1, §2
(§5) The FMP assay was performed as previously described with a few modifications. Briefly, HEK cells were transfected as described[26] and 16–20 hours later plated (50,000 cells/well in DMEM medium) into clear-bottomed black 96-well plates coated with poly-D-lysine and the assay performed 20–28 hours later. The assay protocol including the FMP blue dye incorporation into membranes was exactly as described in Falk-Petersen et al.[26]. […] Data was obtained as changes in fluorescence units (∆RFU) by measuring emission at 560 nm caused by excitation at 530 nm. Unless otherwise mentioned in the text or figure legends experiments were performed in at least three independent experiments each using three technical replicates. Due to an observed edge effect for the FMP assay, outer wells were not used except for the screening.
as §4, with “addition. All raw traces were inspected manually and peak signals resulting from compound/buffer addition together with signal artefacts were omitted from the analysis.” for “addition.”

[3] = molecular target: T3, human α2β2γ2 GABAΑ receptor (Homo sapiens, UniProt P47869+P47870); assay: FMP assay at α2β2γ2 GABAA receptors in HEK cells
T3 construct: expressed in transfected cells; host or cells: HEK background (HEK293 Flp-In stably expressing NPBWR2), transient α:β:γ 1:1:2
Protocol: as §1, §2, §3, §4

[4] = molecular target: T4, human α4β1δ GABAΑ receptor (Homo sapiens, UniProt P18505+P48169); assay: FMP assay at α4β1δ GABAA receptors in HEK cells (screening, concentration-inhibition, Schild analysis); conditions: for IC50: vs GABA EC80 0.27–1.0 μM, mean
T4 construct: expressed in transfected cells; host or cells: δ-HEK (HEK293 Flp-In stably expressing human δ), transiently transfected with α4 and β1 1:1
Excerpt: We have previously established a FLIPR membrane potential (FMP) assay to study recombinant δ-containing GABAΑRs entailing a HEK293 Flp-In cell line stably expressing the human δ-subunit which is suitable for co-transfection with any desired α/β subunits. Initially, we validated the applicability of the FMP assay for efficient compound screening in 96-well microtiter plates using the human α4β1δ GABAΑR heterologously expressed in HEK cells. This receptor was chosen as we have previously shown this system to be reliable in expressing δ-containing receptors. To this end, we determined the Z′-factor, which is a statistical factor used to measure the suitability of an assay for high throughput screening.
Thus, we went on to further characterize 2027 by making a full concentration-inhibition curve.
as §1, §2
as §5, with “replicates.” for “replicates. Due to an observed edge effect for the FMP assay, outer wells were not used except for the screening.”
Data obtained in the FMP assay are given as relative changes in fluorescence units (ΔRFU) by subtracting the average of the baseline fluorescence signal from the peak fluorescence signal after compound addition. All raw traces were inspected manually and peak signals resulting from compound/buffer addition together with signal artefacts were omitted from the analysis.
The concentration-response curves obtained in the FMP assay for both agonists (determining EC50 values) and antagonists (determining IC50 values) were fitted using the four-parameter concentration-response model: Response=bottom+top−bottom/1+10^[(logEC50-A)⋅nH] EC/IC50 values describe the concentration resulting in the half-maximal response (halfway between top and bottom), and nΗ is the Hill coefficient.

[5] = molecular target: T5, human α3β2γ2 GABAΑ receptor (Homo sapiens, UniProt P34903+P47870); assay: FMP assay at α3β2γ2 GABAA receptors in HEK cells
T5 construct: expressed in transfected cells; host or cells: HEK background (HEK293 Flp-In stably expressing NPBWR2), transient α:β:γ 1:1:2
Protocol: as §1, §2, §3, §4

[6] = molecular target: T6, human α4β1γ2 GABAΑ receptor (Homo sapiens, UniProt P18505+P48169); assay: FMP assay at α4β1γ2 GABAA receptors in HEK cells
T6 construct: expressed in transfected cells; host or cells: HEK background (HEK293 Flp-In stably expressing NPBWR2), transient α:β:γ 1:1:2
Protocol: as §1, §2, §3, §4

[7] = molecular target: T7, human α5β2γ2 GABAΑ receptor (Homo sapiens, UniProt P31644+P47870); assay: FMP assay at α5β2γ2 GABAA receptors in HEK cells
T7 construct: expressed in transfected cells; host or cells: HEK background (HEK293 Flp-In stably expressing NPBWR2), transient α:β:γ 1:1:2
Protocol: as §1, §2, §3, §4

[8] = molecular target: T8, human α6β2δ GABAΑ receptor (Homo sapiens, UniProt P47870+Q16445); assay: FMP assay at α6β2δ GABAA receptors in HEK cells
T8 construct: expressed in transfected cells; host or cells: δ-HEK (HEK293 Flp-In stably expressing human δ), transiently transfected with α and β 1:1
Protocol: as §1, §2, §3, §4

[9] = read-out: pIC50 ± SEM (converted)

T2 sequence (P48169 36-554): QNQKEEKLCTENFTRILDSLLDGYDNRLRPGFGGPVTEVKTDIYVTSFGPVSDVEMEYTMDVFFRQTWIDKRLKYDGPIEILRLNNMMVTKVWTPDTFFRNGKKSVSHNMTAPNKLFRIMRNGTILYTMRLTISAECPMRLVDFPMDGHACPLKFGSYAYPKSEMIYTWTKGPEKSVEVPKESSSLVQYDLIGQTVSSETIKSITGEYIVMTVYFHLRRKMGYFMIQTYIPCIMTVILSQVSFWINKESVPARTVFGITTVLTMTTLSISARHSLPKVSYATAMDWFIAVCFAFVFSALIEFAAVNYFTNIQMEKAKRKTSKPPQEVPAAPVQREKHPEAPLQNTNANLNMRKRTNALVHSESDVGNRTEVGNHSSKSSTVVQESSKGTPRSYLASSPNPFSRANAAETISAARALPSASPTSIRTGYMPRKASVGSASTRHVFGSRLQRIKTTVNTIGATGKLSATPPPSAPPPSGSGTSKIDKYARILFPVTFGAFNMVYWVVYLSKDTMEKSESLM
T2 sequence (P47870 25-512 limits assumed): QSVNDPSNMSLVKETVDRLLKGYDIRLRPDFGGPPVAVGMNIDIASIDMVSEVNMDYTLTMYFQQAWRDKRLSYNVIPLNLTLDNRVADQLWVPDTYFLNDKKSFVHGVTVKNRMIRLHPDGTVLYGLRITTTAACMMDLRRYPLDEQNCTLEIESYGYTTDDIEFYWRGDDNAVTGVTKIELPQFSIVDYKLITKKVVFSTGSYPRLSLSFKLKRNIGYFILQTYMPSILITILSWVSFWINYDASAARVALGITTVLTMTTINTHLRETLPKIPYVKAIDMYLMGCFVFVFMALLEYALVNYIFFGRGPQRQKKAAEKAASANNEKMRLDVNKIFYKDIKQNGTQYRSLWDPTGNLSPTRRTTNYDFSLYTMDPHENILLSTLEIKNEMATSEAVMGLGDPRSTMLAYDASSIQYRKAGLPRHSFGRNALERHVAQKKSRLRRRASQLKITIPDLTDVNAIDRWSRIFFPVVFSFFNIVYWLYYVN
T2 sequence (O14764 25-452 partner): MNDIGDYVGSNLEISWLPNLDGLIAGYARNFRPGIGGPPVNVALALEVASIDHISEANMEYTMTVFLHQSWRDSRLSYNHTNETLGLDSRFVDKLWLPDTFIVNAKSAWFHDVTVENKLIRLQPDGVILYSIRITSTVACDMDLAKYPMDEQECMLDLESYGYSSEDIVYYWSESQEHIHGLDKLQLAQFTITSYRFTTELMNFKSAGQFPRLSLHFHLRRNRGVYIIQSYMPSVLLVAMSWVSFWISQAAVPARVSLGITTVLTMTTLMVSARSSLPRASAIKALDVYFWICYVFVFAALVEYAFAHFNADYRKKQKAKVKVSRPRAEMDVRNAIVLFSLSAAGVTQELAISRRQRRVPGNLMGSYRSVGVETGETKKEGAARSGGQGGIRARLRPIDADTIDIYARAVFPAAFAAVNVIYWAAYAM
T4 sequence (P48169 36-554): as the sequence (P48169 36-554) above
T4 sequence (P18505 26-474): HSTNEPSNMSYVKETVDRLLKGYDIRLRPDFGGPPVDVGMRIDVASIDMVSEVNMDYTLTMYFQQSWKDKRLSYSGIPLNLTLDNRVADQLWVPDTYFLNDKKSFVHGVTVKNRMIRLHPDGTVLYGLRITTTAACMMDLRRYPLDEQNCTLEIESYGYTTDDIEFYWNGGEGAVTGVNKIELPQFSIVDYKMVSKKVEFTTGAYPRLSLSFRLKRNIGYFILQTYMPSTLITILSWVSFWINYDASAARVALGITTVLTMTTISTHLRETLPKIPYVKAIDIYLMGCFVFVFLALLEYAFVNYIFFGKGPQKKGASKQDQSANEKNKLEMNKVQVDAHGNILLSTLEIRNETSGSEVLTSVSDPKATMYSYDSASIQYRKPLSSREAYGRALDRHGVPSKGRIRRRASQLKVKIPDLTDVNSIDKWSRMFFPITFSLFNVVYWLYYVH
T4 sequence (O14764 25-452 partner): as the sequence (O14764 25-452 partner) above
T6 sequence (P48169 36-554): as the sequence (P48169 36-554) above
T6 sequence (P18505 26-474): as the sequence (P18505 26-474) above
T6 sequence (P18507 40-475 partner): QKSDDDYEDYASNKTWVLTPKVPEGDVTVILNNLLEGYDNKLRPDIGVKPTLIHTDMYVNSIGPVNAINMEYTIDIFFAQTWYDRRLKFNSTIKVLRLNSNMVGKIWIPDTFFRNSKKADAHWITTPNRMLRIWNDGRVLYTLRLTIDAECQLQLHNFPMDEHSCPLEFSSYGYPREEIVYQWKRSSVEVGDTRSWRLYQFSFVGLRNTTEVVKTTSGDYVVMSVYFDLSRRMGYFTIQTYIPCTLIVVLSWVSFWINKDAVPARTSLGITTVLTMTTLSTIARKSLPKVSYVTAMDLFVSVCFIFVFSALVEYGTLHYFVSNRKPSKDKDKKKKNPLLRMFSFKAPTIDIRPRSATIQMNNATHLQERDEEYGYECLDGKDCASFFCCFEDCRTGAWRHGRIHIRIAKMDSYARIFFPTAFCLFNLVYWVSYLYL
T1 sequence (P14867 28-456): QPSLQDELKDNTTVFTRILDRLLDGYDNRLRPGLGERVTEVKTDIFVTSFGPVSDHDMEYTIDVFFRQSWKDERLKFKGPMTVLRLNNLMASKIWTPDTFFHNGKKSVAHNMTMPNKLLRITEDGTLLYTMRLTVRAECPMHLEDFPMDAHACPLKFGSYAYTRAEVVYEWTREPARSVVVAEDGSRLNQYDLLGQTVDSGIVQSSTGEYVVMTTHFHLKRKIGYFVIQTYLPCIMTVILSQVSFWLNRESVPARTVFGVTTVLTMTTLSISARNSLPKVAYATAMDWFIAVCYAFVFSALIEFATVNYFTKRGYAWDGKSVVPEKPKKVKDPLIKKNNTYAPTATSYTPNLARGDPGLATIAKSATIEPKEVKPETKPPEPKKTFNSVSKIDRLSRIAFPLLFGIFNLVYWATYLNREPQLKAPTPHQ
T1 sequence (P47870 25-512 limits assumed): as the sequence (P47870 25-512 limits assumed) above
T1 sequence (P18507 40-475 partner): as the sequence (P18507 40-475 partner) above
T8 sequence (Q16445 20-453): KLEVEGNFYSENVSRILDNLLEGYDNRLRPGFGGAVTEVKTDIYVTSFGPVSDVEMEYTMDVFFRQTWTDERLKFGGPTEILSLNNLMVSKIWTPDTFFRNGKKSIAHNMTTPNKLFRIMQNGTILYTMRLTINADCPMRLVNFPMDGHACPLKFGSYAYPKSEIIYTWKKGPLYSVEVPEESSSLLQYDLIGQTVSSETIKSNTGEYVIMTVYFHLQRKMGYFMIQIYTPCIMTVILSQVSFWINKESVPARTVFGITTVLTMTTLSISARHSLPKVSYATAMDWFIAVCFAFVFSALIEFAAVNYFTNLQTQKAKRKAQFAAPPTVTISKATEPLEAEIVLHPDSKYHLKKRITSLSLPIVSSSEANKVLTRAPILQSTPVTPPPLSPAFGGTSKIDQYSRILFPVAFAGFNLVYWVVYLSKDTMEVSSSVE
T8 sequence (P47870 25-512 limits assumed): as the sequence (P47870 25-512 limits assumed) above
T8 sequence (O14764 25-452 partner): as the sequence (O14764 25-452 partner) above
T7 sequence (P31644 32-462): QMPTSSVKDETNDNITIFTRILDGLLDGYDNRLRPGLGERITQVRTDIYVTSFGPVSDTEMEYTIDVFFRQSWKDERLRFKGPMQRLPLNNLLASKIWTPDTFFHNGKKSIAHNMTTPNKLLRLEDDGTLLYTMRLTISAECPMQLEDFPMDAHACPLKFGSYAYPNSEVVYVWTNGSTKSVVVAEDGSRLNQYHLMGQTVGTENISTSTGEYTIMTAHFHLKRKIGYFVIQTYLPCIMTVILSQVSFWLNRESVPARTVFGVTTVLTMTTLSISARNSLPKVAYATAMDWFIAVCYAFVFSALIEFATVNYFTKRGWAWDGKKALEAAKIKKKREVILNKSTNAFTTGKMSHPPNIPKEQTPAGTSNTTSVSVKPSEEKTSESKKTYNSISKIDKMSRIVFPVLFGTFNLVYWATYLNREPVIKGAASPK
T7 sequence (P47870 25-512 limits assumed): as the sequence (P47870 25-512 limits assumed) above
T7 sequence (P18507 40-475 partner): as the sequence (P18507 40-475 partner) above
T5 sequence (P34903 29-492): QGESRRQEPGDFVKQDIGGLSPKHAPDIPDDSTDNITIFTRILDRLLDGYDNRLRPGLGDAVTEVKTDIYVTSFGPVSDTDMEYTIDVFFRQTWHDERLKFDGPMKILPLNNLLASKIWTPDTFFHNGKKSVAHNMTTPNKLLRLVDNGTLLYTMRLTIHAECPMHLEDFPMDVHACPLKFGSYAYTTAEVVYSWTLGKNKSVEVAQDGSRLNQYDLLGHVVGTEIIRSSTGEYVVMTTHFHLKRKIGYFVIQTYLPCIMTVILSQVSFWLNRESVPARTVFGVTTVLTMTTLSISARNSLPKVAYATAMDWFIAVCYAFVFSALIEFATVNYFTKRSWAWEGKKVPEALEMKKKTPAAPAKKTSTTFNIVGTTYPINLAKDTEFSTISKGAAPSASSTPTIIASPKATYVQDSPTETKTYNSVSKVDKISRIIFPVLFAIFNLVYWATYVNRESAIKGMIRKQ
T5 sequence (P47870 25-512 limits assumed): as the sequence (P47870 25-512 limits assumed) above
T5 sequence (P18507 40-475 partner): as the sequence (P18507 40-475 partner) above

## NCCCC(=O)O [GABA]
[1]; α1β2γ2, calculated from GABA potencies
  GABA EC80: 8.0 µM
[2]; α4β2δ, calculated from GABA potencies
  GABA EC80: 0.80 to 1.0 µM
[3]; α2β2γ2, calculated from GABA potencies
  GABA EC80: 10 µM
[4]; calculated from GABA potencies
  GABA EC80: 0.27 to 1.0 µM
[5]; α3β2γ2, calculated from GABA potencies
  GABA EC80: 10 µM
[6]; α4β1γ2, calculated from GABA potencies
  GABA EC80: 4.0 to 8.0 µM
[7]; α5β2γ2, calculated from GABA potencies
  GABA EC80: 3.0 µM
[8]; α6β2δ, calculated from GABA potencies
  GABA EC80: 3.0 µM

## O=C(Nc1cccc(C(=O)N2CCC3(CCNCC3)CC2)c1)c1cccs1 [compound 018, N-(3-(3,9-diazaspiro[5.5]undecane-3-carbonyl)phenyl)thiophene-2-carboxamide]
[1]
  IC50: 790 nM
[2]; IC50 68 nM vs 790 nM
  increased potency at α4β2δ compared to α1β2γ2: 12 times
[2]; read-out: IC50
  IC50: 68 nM
[3]; [9]
  IC50: 324 nM
[4]; Gaddum/Schild analysis, read-out: KΒ from Schild analysis
  Kd: 19 nM
[4]; IC50 ratio
  potency of 018 relative to 2027: approximately 10 times
[4]
  IC50: 90 nM and 88 nM
[5]; read-out: IC50
  IC50: 79 nM
[6]
  IC50: 37.2 nM
[7]
  IC50: 51 nM
[8]; [9]
  IC50: 331 nM

## CC(=O)Nc1cccc(C(=O)N2CCC3(CCNCC3)CC2)c1 [compound 2027, N-(3-(3,9-diazaspiro[5.5]undecane-3-carbonyl)phenyl)acetamide]
[1]
  IC50: 4960 nM
[2]; [9]
  IC50: 363 nM
[3]; read-out: IC50
  IC50: 2960 nM
[4]; 100, 50 and 10 μM in triplicates
  hit validation, antagonistic effect: showed antagonistic effect
[4]; HEK293, read-out: inhibition of the GABA EC80 signal, primary screening, 10 μM, singlicates
  inhibition at 10 µM: > 50%
[4]
  IC50: 1030 nM
[5]; [9]
  IC50: 288 nM
[6]
  IC50: 166 nM
[7]
  IC50: 590 nM
[8]; read-out: IC50
  IC50: 4130 nM
